Assays:
FGFR3 = biological target: T1, FGFR3 (Homo sapiens, UniProt P22607); experiment: FGFR3 kinase activity inhibition assay (LanthaScreen TR-FRET); type: biochemical; conditions: for IC50: FGFR3 kinase, TR-FRET, read-out: IC50 (nM) FGFR3; for Selectivity (X) FGFR1/FGFR3: ratio of IC50 FGFR1/FGFR3, selectivity towards FGFR3
T1 construct: FGFR3's cytoplasmic domain [436-806 (terminal) amino acids]; purchased Carna 08-135
Procedure, shortened: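 Read-out is TR-FRET, with the 520 nm/495 nm emission ratio normalised to DMSO (max) and enzyme-free (min) controls. Enzyme was the FGFR3 cytoplasmic domain, residues 436-806. EDTA (10 mM) stopped the reaction, followed by 60 min at 22 °C before reading.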

FGFR1 = biological target: T2, FGFR1 (Homo sapiens, UniProt P11362); experiment: FGFR1 kinase activity inhibition assay (LanthaScreen TR-FRET); type: biochemical; conditions: FGFR1 kinase, TR-FRET; read-out: IC50 (nM) FGFR1
T2 construct: cytoplasmic domain [398-822 (terminal) amino acids]; purchased Carna 08-133
T2 sequence (P11362 398-822): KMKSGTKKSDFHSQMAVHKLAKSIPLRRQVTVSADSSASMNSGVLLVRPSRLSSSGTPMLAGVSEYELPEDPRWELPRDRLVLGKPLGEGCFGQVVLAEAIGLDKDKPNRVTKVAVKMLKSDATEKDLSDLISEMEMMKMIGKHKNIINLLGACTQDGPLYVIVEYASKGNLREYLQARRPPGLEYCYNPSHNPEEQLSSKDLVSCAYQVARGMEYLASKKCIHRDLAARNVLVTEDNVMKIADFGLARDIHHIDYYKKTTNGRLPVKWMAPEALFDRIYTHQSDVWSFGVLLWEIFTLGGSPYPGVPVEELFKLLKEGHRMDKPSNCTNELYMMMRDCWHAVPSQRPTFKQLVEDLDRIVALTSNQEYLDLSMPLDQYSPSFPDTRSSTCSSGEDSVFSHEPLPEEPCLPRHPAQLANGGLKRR
Procedure, shortened: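 Emission ratio 520 nm/495 nm by TR-FRET after stopping reaction with 10 mM EDTA and 60 min incubation at 22°C. Inhibition normalized between no-enzyme (min) and DMSO (max) controls, then fitted to a four-parameter curve (Top, Bottom, HillSlope).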

T1 sequence (P22607 436-806): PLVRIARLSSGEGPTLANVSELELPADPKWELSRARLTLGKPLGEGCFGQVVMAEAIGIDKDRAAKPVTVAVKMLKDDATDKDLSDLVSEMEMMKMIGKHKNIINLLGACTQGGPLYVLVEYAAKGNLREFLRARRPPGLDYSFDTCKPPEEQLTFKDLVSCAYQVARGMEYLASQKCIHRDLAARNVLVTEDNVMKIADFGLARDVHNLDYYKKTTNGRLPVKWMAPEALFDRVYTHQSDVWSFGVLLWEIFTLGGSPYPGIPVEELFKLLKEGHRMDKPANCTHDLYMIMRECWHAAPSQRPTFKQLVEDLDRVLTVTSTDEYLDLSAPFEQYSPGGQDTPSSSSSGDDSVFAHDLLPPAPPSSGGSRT

Row | IC50 (FGFR3) [nM] | Selectivity (X) FGFR1/FGFR3 (FGFR3) | IC50 (FGFR1) [nM] | Structure (SMILES)
1 | < 1 | B (B represents 20 ≤ multiple X<50) | 10 to 100 | CC(Oc1ccc2[nH]nc(-c3cnn(C4CN(C(=O)CO)C4)c3)c2c1)c1cc(Cl)cc2nccnc12 (stereo not drawn) [Example 207, 1-(3-(4-(5-(1-(7-chloroquinoxalin-5-yl)ethoxy)-1H-indazol-3-yl)-1H-pyrazol-1-yl)azetidin-1-yl)-2-hydroxyethan-1-one]
2 | < 1 | B (B represents 20 ≤ multiple X<50) | 10 to 100 | CC(Oc1ccc2[nH]nc(-c3cnn(C4CN(C(=O)C(C)(C)O)C4)c3)c2c1)c1cc(Cl)cc2nccnc12 (stereo not drawn) [Example 209, 1-(3-(4-(5-(1-(7-chloroquinoxalin-5-yl)ethoxy)-1H-indazol-3-yl)-1H-pyrazol-1-yl)azetidin-1-yl)-2-hydroxy-2-methylpropan-1-one]
3 | < 1 | A (A represents 1 ≤ multiple X<20) | 1 to 10 | CC(Oc1ccc2[nH]nc(-c3cnn(C4CN(C(=O)C(C)(C)N)C4)c3)c2c1)c1cc(Cl)cc2nccnc12 (stereo not drawn) [Example 210, 2-amino-1-(3-(4-(5-(1-(7-chloroquinoxalin-5-yl)ethoxy)-1H-indazol-3-yl)-1-pyrazol-1-yl)azetidin-1-yl)-2-methylpropan-1-one]
4 | < 1 | C (C represents 50 ≤ multiple X<100) | 10 to 100 | CC(Oc1ccc2[nH]nc(-c3cnn(CCCS(C)(=O)=O)c3)c2c1)c1cc(Cl)cc2nccnc12 (stereo not drawn) [Example 220, 7-chloro-5-(1-((3-(1-(3-(methylsulfonyl)propyl)-1H-pyrazol-4-yl)-1H-indazol-5-yl)oxy)ethyl)quinox aline]
5 | < 1 | B (B represents 20 ≤ multiple X<50) | 10 to 100 | CC(Oc1ccc2[nH]nc(-c3cnn(C4CN(C(=O)C5(O)CC5)C4)c3)c2c1)c1cc(Cl)cc2nccnc12 (stereo not drawn) [Example 222, (3-(4-(5-(1-(7-chloroquinoxalin-5-yl)ethoxy)-1H-indazol-3-yl)-1H-pyrazol-1-yl)azetidin-1-yl)(1-hydroxycyclopropyl)methanone]
6 | 1 to 10 | B (B represents 20 ≤ multiple X<50) | > 100 | COc1cc(OC(C)c2cc(Cl)cc3nccnc23)cc2c(-c3cnn(C)c3)n[nH]c12 (stereo not drawn) [Example 226]
7 | 1 to 10 | B (B represents 20 ≤ multiple X<50) | 10 to 100 | CC(Oc1cc(F)c2[nH]nc(-c3cnn(C)c3)c2c1)c1cc(Cl)cc2nccnc12 (stereo not drawn) [Example 228, 7-chloro-5-(1-((7-fluoro-3-(1-methyl-1H-pyrazol-4-yl)-1H-indazol-5-yl)oxy)ethyl)qu inoxaline]
8 | < 1 | B (B represents 20 ≤ multiple X<50) | 10 to 100 | CC(Oc1ccc2[nH]nc(-c3cnn(C4CC(S(C)(=O)=O)C4)c3)c2c1)c1cccc2nccnc12 (stereo not drawn) [Example 229, 5-(1-((3-(1-(3-(methylsulfonyl)cyclobutyl)-1H-pyrazol-4-yl)-1H-indazol-5-yl)oxy)ethyl)quinoxaline]
9 | < 1 | A (A represents 1 ≤ multiple X<20) | 1 to 10 | CC(Oc1ccc2[nH]nc(-c3cnn(C)c3)c2c1)c1nc(C2CC2)cc2nccnc12 (stereo not drawn) [Example 230, 7-cyclopropyl-5-(1-((3-(1-methyl-1H-pyrazol-4-yl)-1H-indazol-5-yl)oxy)ethyl)pyri dino[3,4-b]pyrazine]
10 | < 1 | B (B represents 20 ≤ multiple X<50) | 10 to 100 | CC(Oc1ccc2[nH]nc(-c3cnn(C4CN(C(=O)C5CC5)C4)c3)c2c1)c1cc(Cl)cc2nccnc12 (stereo not drawn) [Example 238, (3-(4-(5-(1-(7-chloroquinoxalin-5-yl)ethoxy)-1H-indazol-3-yl)-1H-pyrazol-1-yl)azetidin-1-yl)(cyclopropyl) methanone]
11 | < 1 | B (B represents 20 ≤ multiple X<50) | 10 to 100 | CC(Oc1ccc2[nH]nc(-c3cnn(C4CN(C=O)C4)c3)c2c1)c1cc(Cl)cc2nccnc12 (stereo not drawn) [Example 240, 3-(4-(5-(1-(7-chloroquinoxalin-5-yl)ethoxy)-1H-indazol-3-yl)-1H-pyrazol-1-yl)azetidine-1-carbaldehyde]

Second part, the compound before the results:

Row | Structure (SMILES) | IC50 (FGFR3) [nM] | Selectivity (X) FGFR1/FGFR3 (FGFR3) | IC50 (FGFR1) [nM]
12 | CC(Oc1ccc2[nH]nc(-c3cnn(C4CN(C(=O)C(C)(C)N)C4)c3)c2c1)c1c(C(F)F)ccc2ncccc12 (stereo not drawn) [Example 208, 2-amino-1-(3-(4-(5-(1-(6-(difluoromethyl)quinoline-5-yl)ethoxy)-1H-indazol-3-yl)-1H-pyrazol-1-yl)azetidin-1-yl)-2-methylpropan-1-one] | < 1 | B (B represents 20 ≤ multiple X<50) | 10 to 100
13 | CC(Oc1ccc2[nH]nc(-c3cnn(C4CN(C(=O)C(C)(C)N)C4)c3)c2c1)c1cc(Cl)cc2ncccc12 (stereo not drawn) [Example 211, 2-amino-1-(3-(4-(5-(1-(7-chloroquinolin-5-yl)ethoxy)-1H-indazol-3-yl)-1-pyrazol-1-yl)azetidin-1-yl)-2-methylpropan-1-one] | < 1 | B (B represents 20 ≤ multiple X<50) | 10 to 100
14 | CC(Oc1ccc2[nH]nc(-c3cnn(C4CN(CC(N)=O)C4)c3)c2c1)c1cccc2nccnc12 (stereo not drawn) [Example 214, 2-(3-(4-(5-(1-(quinoxalin-5-yl)ethoxy)-1H-indazol-3-yl)-1H-pyrazol-1-yl)azetidin-1-yl)acetamide] | < 1 | B (B represents 20 ≤ multiple X<50) | 10 to 100
15 | Cc1cc(C(C)Oc2ccc3[nH]nc(-c4cnn(C5CN(C(=O)C(C)(C)N)C5)c4)c3c2)c2cccnc2c1 (stereo not drawn) [Example 215, 2-amino-2-methyl-1-(3-(4-(5-(1-(7-methylquinolin-5-yl)ethoxy)-1H-indazol-3-yl)-1H-pyrazol-1-yl)azetidin-1-yl)propan-1-one] | < 1 | B (B represents 20 ≤ multiple X<50) | 10 to 100
16 | CNC(C)(C)C(=O)N1CC(n2cc(-c3n[nH]c4ccc(OC(C)c5cccc6nccnc56)cc34)cn2)C1 (stereo not drawn) [Example 216, 2-methyl-2-(methylamino)-1-(3-(4-(5-(1-(quinoxalin-5-yl)ethoxy)-1H-indazol-3-yl)-1H-pyrazol-1-yl)azetidin-1-yl)propan-1-one] | < 1 | A (A represents 1 ≤ multiple X<20) | 1 to 10
17 | Cc1ccc2ncccc2c1C(C)Oc1ccc2[nH]nc(-c3cnn(C4CN(C(=O)C(C)(C)O)C4)c3)c2c1 (stereo not drawn) [Example 217, 2-hydroxy-2-methyl-1-(3-(4-(5-(1-(6-methylquinolin-5-yl)ethoxy)-1H-indazol-3-yl)-1H-pyrazol-1-yl)azetidin-1-yl)propan-1-one] | < 1 | C (C represents 50 ≤ multiple X<100) | 10 to 100
18 | CC(Oc1ccc2[nH]nc(-c3cnn(C4CN(C(=O)C5CC5)C4)c3)c2c1)c1cccc2nccnc12 (stereo not drawn) [Example 219, cyclopropyl(3-(4-(5-(1-(quinoxalin-5-yl)ethoxy)-1H-indazol-3-yl)-1H-pyrazol-1-yl)azetidin-1-yl)methanone] | < 1 | A (A represents 1 ≤ multiple X<20) | 10 to 100
19 | CC(Oc1ccc2[nH]nc(-c3cnn(C4CN(C(=O)C5(O)CCC5)C4)c3)c2c1)c1cccc2nccnc12 (stereo not drawn) [Example 221, (1-hydroxycyclobutyl)(3-(4-(5-(1-(quinoxalin-5-yl)ethoxy)-1H-indazol-3-yl)-1H-pyrazol-1-yl)azetidin-1-yl)methanone] | < 1 | B (B represents 20 ≤ multiple X<50) | 1 to 10
20 | Cc1cc2nccnc2c(C(C)Oc2cc(F)c3[nH]nc(-c4cnn(C)c4)c3c2)n1 (stereo not drawn) [Example 225, 5-(1-((7-fluoro-3-(1-methyl-1H-pyrazol-4-yl)-1H-indazol-5-yl)oxy)ethyl)-7-methylpyridino[3,4-b]pyrazine] | < 1 | A (A represents 1 ≤ multiple X<20) | 1 to 10
21 | CC(Oc1ccc2[nH]nc(-c3cnn(C)c3)c2c1)c1c(C(F)F)ccc2nccnc12 (stereo not drawn) [Example 232] | < 1 | A (A represents 1 ≤ multiple X<20) | 1 to 10
22 | CC(C)c1cc2nccnc2c(C(C)Oc2ccc3[nH]nc(-c4cnn(C)c4)c3c2)n1 (stereo not drawn) [Example 237] | 1 to 10 | B (B represents 20 ≤ multiple X<50) | 10 to 100
23 | CC(Oc1ccc2[nH]nc(-c3cnn(C4COC4)c3)c2c1)c1cc(Cl)cc2nccnc12 (stereo not drawn) [Example 239] | 1 to 10 | C (C represents 50 ≤ multiple X<100) | 10 to 100

— patent EP4644383A1 (Jiangsu Yahong Meditech Co., Ltd., priority 2022, dated 2024)
